Each structure is given as a SMILES string. Where two headings read alike, the source gives them in different places.

For one assay, the system named is P. falciparum 3D7 strain. The assay is described as follows: MAL vt: Malaria viability assay. It counts as cell-based. To be noted: Plasmodium falciparum.
Another assay has as its system T. brucei strain S427. The assay is described as follows: HAT vt: Human African trypanosoma viability assay. In kind it is cell-based. The note with it: 72 hour, resazurin, read-out: measured activity (IC50), HAT vt, TbbS427.
The subject of the next assay is L929 mouse fibroblast. The assay is described as follows: CYT vt: cytotoxicity viability assay. It counts as cell-based.
Assay [1] deals with L. donovani strain MHOM/SD/00/LS. The assay is described as follows: LEI axe: Leishmania axenic amastigote assay. It counts as cell-based.
In a further assay the test system is Brugia malayi. The assay is described as follows: Endoparasites_DR: endoparasites dose response assay, B. malayi. In kind it is cell-based.
In the next assay the test system is Dirofilaria immitis. The experiment in a line: Endoparasites_DR: endoparasites dose response assay, D. immitis. It counts as cell-based. The note with it: 72 h, read-out: measured activity (EC50), Endoparasites_DR, D. immitis.
In assay [2] the test system is parasite species and L929 mouse fibroblast. The experiment in a line: In vitro screening of compounds against parasite panel and mammalian cell line (overall statements). It counts as cell-based.
In a further assay the test system is human cancer cell lines. The arrangement: method as in PMID 23526814. The note with it: 8b and 10c therein; cited from earlier work.
The test system of a further assay is Haemonchus contortus. The experiment in a line: microbe, parasite or virus in culture. In kind it is cell-based. The note with it: 96 hour, read-out: measured activity (EC50), Endoparasites_DR, H. contortus.
[3] abbreviates: 3D7, 0.25 h, timepoint 15 minute, read-out: measured activity (IC50), MAL vt, PfDd2.
The mark [4] stands for this setting: Mus musculus, L929, read-out: measured activity (IC50), CYT vt, L929.
The mark [5] stands for this setting: 72 hour, axenic amastigotes, resazurin, read-out: measured activity (IC50), LEI axe, Ld1S.
Setting [6] is: Mus musculus, Table 2, column H. sapiens, same values as L929 in Table 1, read-out: EC50(IC50).
The mark [7] stands for this setting: 120 h, 5 day, read-out: measured activity (EC50), Endoparasites_DR, B. malayi.
Setting [8] is: Table 2, column B. malayi, read-out: EC50(IC50).

For the molecule `O=C(CCCCCCC(=O)Nc1ccccc1)NO` [GRM1, SAHA, reference compound], the IC50 with P. falciparum 3D7 strain (setting [3]) is 152 nM.

Take `CN1CCc2c(c3ccccc3n2Cc2ccc(C(=O)NO)cc2)C1` [GRM2, Tubastatin, reference compound]: the IC50 was 2700 nM with T. brucei strain S427, 6220 nM in the assay with L929 mouse fibroblast (setting [4]) and > 5000 nM in assay [1] (setting [5]).

Turning to `O=C(CCCCSc1nc(-c2ccc(-c3ccccc3)cc2)cc(=O)[nH]1)NO` [MC1742], the 50% inhibitory concentration (IC50) with L929 mouse fibroblast (setting [4]) is 1510 nM; in the assay on P. falciparum 3D7 strain (setting [3]), < 10 nM.

With `O=C(CCCCCSc1nc2ccccc2c(=O)[nH]1)NO` [MC1862], the 50% inhibitory concentration (IC50) was 7120 nM with L929 mouse fibroblast (setting [4]) and 1150 nM in the assay with P. falciparum 3D7 strain (setting [3]).

On to `COc1cc(-c2ccccc2)nc(SCc2ccc(/C=C/C(=O)NO)cc2)n1` [MC2126], for which the IC50 in the assay on T. brucei strain S427 is 441 nM; with L929 mouse fibroblast (setting [4]) it was 1760 nM; in the assay with P. falciparum 3D7 strain (setting [3]), 1920 nM; in assay [1] (setting [5]), > 5000 nM.

Turning to `O=C(/C=C/c1ccc(NC(=O)C(Cc2ccccc2)c2ccccc2)cn1)NO` (stereo not drawn) [MC2625], the concentration for half-maximal inhibition (IC50) is 1180 nM in the assay with T. brucei strain S427, 311 nM with L929 mouse fibroblast (setting [4]), 22 nM with P. falciparum 3D7 strain (setting [3]) and > 5000 nM in assay [1] (setting [5]).

Turning to `CC(C)(C)OC(=O)Nc1ccc(-c2cc(C(=O)NCCCCCCC(=O)NO)no2)cc1` [MC2726], the IC50 is 1920 nM in the assay on L929 mouse fibroblast (L929 mouse fibroblast, read-out: measured activity (IC50), CYT vt, L929) and 189 nM in the assay with P. falciparum 3D7 strain (setting [3]).

As for `CC(C)(C)OC(=O)Nc1cccc(-c2cc(C(=O)NCCCCCCC(=O)NO)no2)c1` [MC2727a], the IC50 amounted to 2350 nM with L929 mouse fibroblast (setting [4]) and 960 nM with P. falciparum 3D7 strain (setting [3]).

On to `Cn1cc(/C=C/C(=O)c2cccc(NC(=O)OC(C)(C)C)c2)cc1C(=O)NO` [MC2776], for which the IC50 in the assay with L929 mouse fibroblast (setting [6]) and in the assay with human cancer cell lines was > 10000 nM each time. Moreover, the concentration giving a half-maximal response (EC50) in the assay with Brugia malayi (setting [7]) was 4390 nM; with Brugia malayi (setting [8]), 4390 nM; with Dirofilaria immitis, > 10000 nM. Also, in assay [2] (T. brucei, L. donovani, P. falciparum), the “efficacy in the protists” value is reported as “did not show any efficacy”.

`CC(C)(C)OC(=O)Nc1cccc(C(=O)/C=C/c2ccc(/C=C/C(=O)NO)cc2)c1` [MC2780]: the IC50 was found to be 623 nM in the assay with T. brucei strain S427; 4810 nM in the assay with L929 mouse fibroblast (setting [6]); 56 nM with P. falciparum 3D7 strain (setting [3]); 60 nM in the assay with P. falciparum 3D7 strain (3D7, Table 2, column P. falciparum, read-out: EC50(IC50)); 473 nM in assay [1] (setting [5]); 470 nM in [1] (Table 2, column L. donovani, read-out: EC50(IC50)). Besides, the EC50 was found to be 2530 nM in the assay with Brugia malayi (setting [7]), 2530 nM in the assay on Brugia malayi (setting [8]) and 8140 nM in the assay with Dirofilaria immitis. Further, in assay [2], the activity across parasites result is “pan-parasite potential”. In addition, in the assay with human cancer cell lines, the “IC50 on human cancer cell lines” value was “more potent IC50”.

With `CN(C)Cc1ccc(S(=O)(=O)n2ccc3cc(/C=C/C(=O)NO)ccc32)cc1` [MC3031], the IC50 in the assay on T. brucei strain S427 was 267 nM; with L929 mouse fibroblast (setting [4]), 555 nM; in assay [1] (setting [5]), > 5000 nM.

In the case of `CCCCCCCC(=O)SCC/C=C/[C@@H]1CC(=O)NCc2nc(cs2)C2=N[C@@](C)(CS2)C(=O)N[C@@H](C(C)C)C(=O)O1` [SD-L-148, Largazole, reference compound], the IC50 with L929 mouse fibroblast (setting [4]) came out at 101 nM. The concentration for a half-maximal effect (EC50) in the assay with Haemonchus contortus is 7100 nM.

The record behind these values is publication PMC4581690, “Targeting Lysine Deacetylases (KDACs) in Parasites” (PLoS Neglected Tropical Diseases, 2015).
